# Source: PMC6273431, “The Structure–Antimicrobial Activity Relationships of a Promising Class of the Compounds Containing the N-Arylpiperazine Scaffold” (Molecules, 2016)
# Like-named read-outs stand apart in the source and are kept apart here.
# Columns and labels:
# M. marinum CAMP 5644 = assay: antimycobacterial MIC, broth dilution micromethod; type: cell-based; conditions: Mycobacterium marinum, CAMP5644, 504 h, 21 days at 28 °C
# [1] = system: Enterococcus faecalis ATCC 29212; assay: antibacterial MIC, microtitration broth method; type: cell-based; conditions: 37 °C
# Protocol: (§1) Prior to the testing, each strain was transferred into a nutrient agar (Oxoid Limited, Basingstoke, UK), which was enriched with 5% defibrinated bovine blood.
# (§2) The MICs were determined by the microtitration broth method in the cation-adjusted Mueller-Hinton broth (Becton Dickinson, Oxford, UK) according to an international interdisciplinary Clinical Laboratory Standard Institute guidelines.
# (§3) The checkerboard was inoculated by the bacterial inocula, which were prepared in a phosphate buffered saline solution with the pH = 7.2–7.3 to simulate physiological pH. The final concentration of each inoculum in the final volume of 100 μL in the wells was approximately 7.5 × 10^6 CFU/mL. Drug-free controls, sterility controls and the controls consisted of the broth with DMSO were included. The determination of the results was performed visually after 24 h of static incubation in the darkness at 37 °C in an aerobic atmosphere.
# (§4) To ensure reproducibility, each antibacterial MIC assay was performed triplicate on separate occasions.
# [2] = system: Escherichia coli ATCC 25922; assay: antibacterial MIC, microtitration broth method; type: cell-based; conditions: 37 °C
# Protocol: as §1, §2, §3, §4
# [3] = system: methicillin-resistant Staphylococcus aureus 63718; assay: antibacterial MIC, microtitration broth method; type: cell-based; conditions: MRSA, 37 °C
# Protocol: as §1, §2, §3, §4
# [4] = system: Staphylococcus aureus ATCC 29213; assay: antibacterial MIC, microtitration broth method; type: cell-based; conditions: 37 °C
# Protocol: as §1, §2, §3, §4
# M. kansasii DSM 44162 = assay: antimycobacterial MIC, broth dilution micromethod; type: cell-based; conditions: Mycobacterium kansasii, DSM44162, 168 h, 7 days at 37 °C
# M. smegmatis ATCC 700084 = assay: antimycobacterial MIC, broth dilution micromethod; type: cell-based; conditions: Mycolicibacterium smegmatis, ATCC700084, 72 h, 3 days at 37 °C
# [5] = set-up: method as in PMID 16209439, PMID 16209439, doi:10.2478/s11696-006-0007-y; conditions: octan-1-ol/phosphate buffer (pH = 7.4); cited from earlier work
# [6] = set-up: method as in PMID 16209439, PMID 16209439; conditions: potentiometric titration; cited from earlier work
# [7] = system: Mycobacterium avium subsp. paratuberculosis CIT03; assay: antimycobacterial MIC, MB broth, alamarBlue; type: cell-based; conditions: 264 h, read-out: MIC MAP
# Protocol: The Mycobacterium avium subsp. paratuberculosis CIT03 strain was grown in the Middlebrook (MB) broth, supplemented with the Oleic-Albumin-Dextrose-Catalase Supplement (OADC, Becton Dickinson, Oxford, UK) and the mycobactin J (2 μg/mL). The commercially available siderophore mycobactin J reduced the incubation period of M. avium subsp. paratuberculosis in a complex medium when compared to the medium containing the mycobactin P as a growth factor.
# The identification of the isolate was performed using biochemical and molecular protocols. At a log phase growth, a culture sample (10 mL) was centrifuged at 15,000 rpm/20 min using a bench top centrifuge (Model CR 4-12, Jouan Inc., London, UK). Following removal of the supernatant, the pellet was washed in fresh Middlebrook 7H9GC broth and re-suspended in fresh supplemented MB broth (10 mL). The turbidity was adjusted to match the McFarland standard No. 1 containing approximately 3.0 × 10^8 Colony Forming Units (CFU) with the MB broth. Further 1:20 dilution of the culture was performed in the MB broth. The susceptibility of given mycobacterial species was investigated in a 96-well plate format. In those experiments, sterile deionised water (300 μL) was added to all outer-perimeter wells of the plates to minimize an evaporation of the medium in the test wells during the incubation process. Each evaluated compound (100 μL) was incubated with the mycobacterial species (100 μL). The dilutions of a particular compound were prepared in triplicate. For all inspected derivatives, final concentrations ranged from 1000 μg/mL to 60 μg/mL. All compounds were prepared in dimethyl sulfoxide (DMSO; Sigma-Aldrich, Irvine, UK) and subsequent dilutions were made in the supplemented MB broth. The plates were sealed with a parafilm and incubated at 37 °C for 11 days. Following the incubation, a 10% addition of a water‑soluble dye, the alamarBlue reagent (AbD Serotec, Kidlington, UK), was mixed into each well. Absorbance readings at 570 nm and 600 nm were taken, initially for background subtraction and after 24 h re-incubation. The subtraction is necessary for strongly coloured compounds, where the colour may interfere with the interpretation of any colour change. For non-interfering compounds, a blue colour in a well was interpreted as an absence of a growth and a pink colour was scored as a growth.
# The minimum inhibitory concentration (MIC) was defined as the lowest concentration of the compound at which no visible bacterial growth was observed. In other words, the MIC was the lowest concentration that prevented a visual colour change from blue to pink. The MIC value has been routinely and widely used in bacterial assays and it has been a standard detection limit according to the Clinical and Laboratory Standards Institute. The clinically used antimycobacterial drugs INH and RIF were applied as the standards.
# [8] = system: Candida parapsilosis CCM 8260; assay: candidacidal MIC, microdilution method; type: cell-based; conditions: Lodderomyces parapsilosis, CCM8260, 48 h, 37 °C
# Protocol: (§5) In order to provide a look into the potential usefulness of the derivatives 5a–l as the candidates for a development of anti-yeast (candidacidal) agents, they were in vitro tested against Candida albicans CCM 8261 (CA 8261), C. krusei CCM 8271 (CK 8271) and C. parapsilosis CCM 8260 (CP 8260). The yeasts were obtained from the Czech Collection of Microorganisms (Masaryk University, Faculty of Science, Brno, Czech Republic). They were grown and kept on Sabouraud agar (Oxoid Limited, Basingstoke, UK).
# (§6) For the screening, the microdilution method according to the Antimicrobial Susceptibility Testing Protocols was applied. The inoculum was prepared from the cultures grown on Sabouraud agar. With the sterile solution of NaCl, the inoculum was prepared to the 0.5 McFarland units using the Densi-La-Meter densitometer (LIAP, Riga, Latvia) and diluted a thousand‑fold with the Roswell Park Memorial Institute (RPMI) 1640 medium (Sigma-Aldrich, Darmstadt, Germany). Prepared suspension was used for an inoculation of microtitre plates. Final concentration in wells ranged from 5.0 × 10^2 CFU/mL to 2.5 × 10^3 CFU/mL. […] For the determination of the MICs, the stock solutions of all the tested compounds were diluted in the microtitre checkerboard to the final concentration varying from 128 μg/mL to 0.125 μg/mL. Drug-free control, sterility control and the control consisted of a medium and DMSO alone were included. Inoculated microtitre plates were incubated for 48 h in the darkness at 37 °C in an aerobic atmosphere. The results were estimated against static light.
# (§7) The MIC was defined as the lowest concentration of the tested compound at which no visible growth was observed. To ensure reproducibility of the results, each candidacidal MIC assay was performed triplicate on separate occasions. It was important to note that all the MICs from the in vitro antimicrobial screening were expressed in μg/mL units and were available in Tables S3 and S4 (Supplementary Materials).
# [9] = system: Candida albicans CCM 8261; assay: candidacidal MIC, microdilution method; type: cell-based; conditions: Candida albicans, CCM8261, 48 h, 37 °C
# Protocol: as §5, §6, §7
# Candida krusei CCM 8271 = assay: candidacidal MIC, microdilution method; type: cell-based; conditions: Pichia kudriavzevii, CCM8271, 48 h, 37 °C
# Protocol: as §5, §6, §7
Compound,MIC (M. marinum CAMP 5644) [µM],MIC (M. marinum CAMP 5644; Table S3) [µg/mL],"MIC ([1]; ATCC29212, 24 h) [µM]","MIC ([1]; ATCC29212, Table S4, 24 h) [µg/mL]","MIC ([2]; ATCC25922, 24 h) [µM]","MIC ([2]; ATCC25922, Table S4, 24 h) [µg/mL]",MIC ([3]; 24 h) [µM],"MIC ([3]; Table S4, 24 h) [µg/mL]","MIC ([4]; ATCC29213, 24 h) [µM]","MIC ([4]; ATCC29213, Table S4, 24 h) [µg/mL]",MIC (M. kansasii DSM 44162) [µM],MIC (M. kansasii DSM 44162; Table S3) [µg/mL],MIC (M. smegmatis ATCC 700084) [µM],MIC (M. smegmatis ATCC 700084; Table S3) [µg/mL],log Pexp [5],pKa [6],"MIC ([7]; 37 °C, 11 days) [µM]",MIC [7] [µg/mL],MIC [8] [µM],MIC ([8]; Table S4) [µg/mL],also measured
"CCOc1cccc(NC(=O)OCC(O)CN2CCN(c3cccc(C(F)(F)F)c3)CC2)c1.Cl (stereo not drawn) [Compound 5d, 1-[3-(3-ethoxyphenylcarbamoyl)oxy-2-hydroxypropyl]-4-(3-trifluoromethylphenyl)piperazin-1-ium chloride]",127,64,> 508,> 256,> 508,> 256,> 508,> 256,> 508,> 256,31.8,16,127,64,3.72,5.35,1980,1000,> 254,> 128,MIC [9]: > 254 µM; MIC ([9]; Table S4): > 128 µg/mL; MIC (Candida krusei CCM 8271): > 254 µM; MIC (Candida krusei CCM 8271; Table S4): > 128 µg/mL
CCOc1ccccc1NC(=O)OCC(O)CN1CCN(c2cccc(C(F)(F)F)c2)CC1 (stereo not drawn) [Compound 5b],127,64,> 508,> 256,> 508,> 256,> 508,> 256,> 508,> 256,127,64,508,256,3.60,6.00,1980,1000,> 254,> 128,MIC [9]: > 254 µM; MIC ([9]; Table S4): > 128 µg/mL; MIC (Candida krusei CCM 8271): > 254 µM; MIC (Candida krusei CCM 8271; Table S4): > 128 µg/mL
COc1ccc(NC(=O)OCC(O)CN2CCN(c3ccc(F)cc3)CC2)cc1 (stereo not drawn) [Compound 5k],582,256,> 582,> 256,> 582,> 256,> 582,> 256,> 582,> 256,291,128,582,256,3.42,7.24,2270,1000,> 291,> 128,MIC [9]: > 291 µM; MIC ([9]; Table S4): > 128 µg/mL; MIC (Candida krusei CCM 8271): > 291 µM; MIC (Candida krusei CCM 8271; Table S4): > 128 µg/mL
COc1cccc(NC(=O)OCC(O)CN2CCN(c3ccc(F)cc3)CC2)c1 (stereo not drawn) [Compound 5i],291,128,> 582,> 256,> 582,> 256,> 582,> 256,> 582,> 256,145,64,582,256,3.25,6.55,1140,500,> 291,> 128,MIC [9]: > 291 µM; MIC ([9]; Table S4): > 128 µg/mL; MIC (Candida krusei CCM 8271): > 291 µM; MIC (Candida krusei CCM 8271; Table S4): > 128 µg/mL
"COc1ccc(NC(=O)OCC(O)CN2CCN(c3cccc(C(F)(F)F)c3)CC2)cc1 (stereo not drawn) [Compound 5e, 1-{2-hydroxy-3-(4-methoxyphenylcarbamoyl)oxy)propyl}-4-(3-trifluoromethylphenyl)piperazin-1-ium chloride]",65.3,32,> 523,> 256,> 523,> 256,> 523,> 256,> 523,> 256,65.3,32,523,256,3.60,5.66,1020,500,> 261,> 128,MIC [9]: > 261 µM; MIC ([9]; Table S4): > 128 µg/mL; MIC (Candida krusei CCM 8271): > 261 µM; MIC (Candida krusei CCM 8271; Table S4): > 128 µg/mL
COc1ccccc1NC(=O)OCC(O)CN1CCN(c2cccc(C(F)(F)F)c2)CC1 (stereo not drawn) [Compound 5a],131,64,> 523,> 256,> 523,> 256,> 523,> 256,> 523,> 256,131,64,523,256,3.57,5.83,510,250,> 261,> 128,MIC [9]: > 261 µM; MIC ([9]; Table S4): > 128 µg/mL; MIC (Candida krusei CCM 8271): > 261 µM; MIC (Candida krusei CCM 8271; Table S4): > 128 µg/mL
